Assay results taken from patent publication US20070275936A1, “Formulations and Treatment Methods” (priority 1998, published 2007).
Where two headings read alike, the source gives them in different places.

Key:
[1] = test system: BALB/c mice; experiment: Reversal of immunosenescence: HBsAg vaccination of aged mice; type: in vivo
Experimental: Healthy aged (20-month) or immunologically-mature (3-month) BALB/c mice were vaccinated with hepatitis B surface antigen (HBsAg) (2 μg; Recombivax-HB; Merck) and Alum (2.75 μg). The aged mice were vaccinated with the antigen and also received a single subcutaneous injection of either 0.3 mg or 3.0 mg of 3β,7β,17β-trihydroxyandrost-5-ene (AET), BrEA or 7-oxodehydroepiandrosterone, dehydroepiandrosterone or the vehicle (placebo control). The AET, BrEA hemihydrate or dehydroepiandrosterone was present in a formulation that contained 60 mg/mL of the compound suspended in 0.1% w/v carboxymethyl cellulose sodium in 0.9% saline. 7-Oxodehydroepiandrosterone was in a formulation that contained 60 mg/mL of the compound suspended in 0.1% w/v gum arabic in 0.9% saline. A concentration of 6 mg/mL was obtained by diluting the 60 mg/mL formulation with vehicle that lacked the active substance.
Blood samples were collected 14, 21 and 34 days after treatment and the sera were analyzed by ELISA to determine the concentration of HBsAg-specific IgG (total IgG). In addition, samples obtained on day 21 were analyzed to determine the concentration of HBsAg-specific IgG1 and IgG2a subclasses. The results summarized below were average values obtained with blood samples collected 21 days after vaccination of groups of 8 mice. Subcutaneous injection was performed after shaving the hair from the thighs of each mouse. The injected volume was 50 μL for compound (3.0 mg or 0.3 mg) or placebo, and for vaccine preparation. The vehicle control consisted of carboxymethylcellulose (0.5%) in saline (0.9%). Antibody titers were determined by ELISA.
Secondary antibody response. Later, 42 days after the initial exposure to HBsAg, serum samples were taken from the mice described in the previous section and these were tested for anti-HBsAg IgG. At this time-point, vaccine-specific IgG titers were either low or undetectable. Three days later (45 days after first vaccination), the mice were injected again with HBsAg in Alum, but this time, none of the mice received immunosteroid (secondary vaccination). Serum samples collected 7 days and 14 days after the second exposure to HBsAg vaccine were assayed for anti-HBsAg antibody. […] In contrast, in aged mice that had received no immunosteroid with the first HBsAg injection, low levels of anti-HBsAg were detectable, and only in 4 of the 8 mice in this group was antibody detectable. Increases in anti-HBsAg titers were seen following secondary vaccination in aged animals that had been treated with immunosteroid in conjunction with the first HBsAg exposure. The anti-HBsAg antibody titer in serum increased following secondary vaccination in all 8 mice in the groups of aged mice that were treated at primary vaccination with the higher dose (3 mg/mouse) of AET, BrEA or 7-oxodehydroepiandrosterone, or with dehydroepiandrosterone (0.3 mg/mouse). In those aged mice that had received the lower dose (0.3 mg/mouse) of AET, BrEA or 7-oxodehydroepiandrosterone at vaccination, an intermediate response was seen, with 6 of the 8 mice producing detectable anti-HBsAg in response to secondary vaccination.

[2] = test system: Wistar rats; experiment: DNBS induced distal colitis in rats; type: in vivo; details: for animals with moderate acute inflammation: 5 of 10 in immunosteroid vehicle controls; for animals with severe chronic inflammation: 14 days after DNBS challenge, 8 of 10 in immunosteroid vehicle controls; for diarrhea: 7-oxodehydroepiandrosterone 2 and 20 mg/mL s.c., sulfasalazine PO, AET 20 mg/kg
Experimental: Groups of 3 male Wistar rats (180±20 grams) fasted for 24 hours before 2,4-dinitrobenzene sulfonic acid (DNBS) or saline challenge were used. Distal colitis was induced by intra-colonic instillation of 0.5 mL of an ethanolic solution of DNBS (30 mg in 0.5 mL of a 30% ethanol in saline solution) after which 2 mL of air was injected through the cannula to ensure that the solution remained in the colon. The volume used was 0.1 mL per injection of 2 and 20 mg/mL of 7-oxodehydroepiandrosterone in a liquid formulation, was administered by subcutaneous injection once a day for 6 days. The formulation contained […] of 7-oxodehydroepiandrosterone in a non-aqueous suspension that contained 2% benzyl alcohol w/v, 0.1% Brij 96 w/v and equal volumes of PEG 300 and propylene glycol. Concentrations of 2 mg/mL and 20 mg/mL were obtained by diluting the […] with vehicle that lacked the active substance.
The first dose was given 30 minutes after DNBS challenge. Sulfasalazine (30 mg/mL in 2% Tween 80 in distilled water) was administered orally (PO) once a day (10 mL/kg/day) for 7 days, the first two doses beginning 24 hours and 2 hours before DNBS challenge. The presence of diarrhea was recorded daily by examining the anal area. Animals were fasted for 24 hours prior to being sacrificed. Animals were sacrificed on day 7 or day 8 and their colons were removed and weighed. Before removal of the colon, signs of adhesion between the colon and other organs were recorded. Also, the presence of ulcerations was noted after weighing of each colon. The “net” change of colon-to-body weight (BW) ratio was normalized relative to saline-challenged baseline group. A 30% decrease in “net” colon-to-body weight ratio was considered significant.
A total of five studies were conducted. Data from the first study are reported in this report. The 7-oxodehydroepiandrosterone at 2 and 20 mg/mL, decreased the net colon-to-body weight ratio by 19 and by 14% relative to vehicle-treated group, respectively. […] The formula 1 compound 3β,7β,17β-trihydroxyandrost-5-ene (AET) was administered by subcutaneous injections of 2 and 20 mg/day for 5 or 6 days, with the first dose injected 30 minutes post-DNBS challenge. The AET formulation was the same as the 7-oxodehydroepiandrosterone formulation, except that AET replaced 7-oxodehydroepiandrosterone. AET decreased the net colon-to-body weight ratio by 15% and 21% relative to controls (see the table below). Animals treated with AET (20 mg/kg) had no diarrhea. […] The same formulations containing BrEA hemihydrate (100 mg/mL) or dehydroepiandrosterone (20 mg/mL) decreased the net colon-to-body weight ratio by 21 and 3%, respectively relative to controls.

[3] = test system: P. berghei HP15 ANKA; experiment: Four-day in vivo suppressive test in TO mice; design: species or system Plasmodium berghei; details: day 5 blood films, 5 equals control
Experimental: The 4-day suppressive test has been widely used and it can be performed within a 1 week period. The test consists of the inoculation of parasitised erythrocytes on the first day of the experiment (D0), followed by an injection of the test compound, which is also administered on the 2nd, 3rd and 4th days of the protocol. On the 5th day, blood films are taken and antimalarial activity is assessed either by calculating parasitemia, or by scoring parasite numbers on a predetermined scale (i.e., 1-5).
The protocol is summarized as follows. Five female TO mice were used per test group. P. berghei HP15 ANKA parasites were collected by cardiac puncture using a heparinised syringe from a donor mouse having a 30+% parasitaemia. The blood was diluted with diluting agent (50% HIFCS+50% sterile PBS) to a final concentration of 1% parasitaemia or 1×10^7 infected erythrocytes per 0.2 mL of the infecting suspension. […] The steroid formulations were administered intraperitoneally 2 hours after parasite inoculation. The compounds were administered once a day starting on Do, and continued on the following three days. Blood films were made from tail blood on the day after the last dosing of compound and the blood was fixed with 100% methanol and stained with 10% Giemsa. Parasitaemias were scored on a scale of 0-5, where 5 is equal to the control.
An inoculum of 1% parasitaemia […], 0.2 mL per mouse (female strain TO mice), was delivered by intravenous injection. Drug administration commenced 2 hours after inoculation on Day 1 and continued for 3 days.

[4] = test system: Chloroquine sensitive T996/86 P. falciparum; experiment: In vitro antimalarial testing (schizont inhibition / 3H-hypoxanthine incorporation); type: cell-based
Experimental: For in vitro antimalarial testing, micro-titer plates were used. The concentration of drugs were prepared as pMol/well according to WHO standard procedures (WHO, 1990). The test compound was dissolved in 15% DMSO in sterile RPMI-1640. Both chloroquine sensitive (e.g., WS/97) and resistant (e.g., MN/97) isolates of Plasmodium species are used.
A schizont inhibition assay was performed as follows. The micro-titer plates were predosed with various concentrations of the test compound. 50 μL of parasitised erythrocyte suspension in RPMI-1640 (0.2 mL erythrocyte+0.3 mL serum+4-5 ml RPMI-1640) were dispensed in microtiter wells that contained various concentrations of drug. Triplicate readings were made for each concentration.
A ^3H-hypoxanthine incorporation assay was performed as follows. The testing was carried out according to the procedure of Desjardins et al. 1979. After 30 hr culture at 37 degrees C., the same microtiter plates from schizont inhibition assays with another triplicate wells were pulsed with ^3H-hypoxanthine for overnight. The cell suspensions were washed twice on millipore glass fiber filter with Millipore filter apparatus. The filter discs were counted for DPM by a Beckman LS6000 β-scintillation counter. The activity of the drug was measured by plotting DPM against concentration of drug.

[5] = test system: Plasmodium berghei; experiment: Lewis rat in vivo parasitemia study; details: Lewis rats, chloroquine 40 mg/kg i.v. days 0-3
[6] = DNBS rats, first study, groups of 3
[7] = T996/86 P. falciparum in vitro, read-out: IC50

Row | Molecule | animals with moderate acute inflammation ([2]; 7 days after DNBS challenge) | animals with severe chronic inflammation [2] | adhesions [2, 6] | diarrhea ([2]; DNBS rats) | % inhibition ([4]; 0.938 μM) | % inhibition ([4]; 1.875 μM) | % inhibition ([4]; 3.25 μM) | % inhibition ([4]; 7.5 μM) | % inhibition ([4]; 15 μM) | % inhibition ([4]; 30 μM) | IC50 [4, 7] | also measured
1 | C[C@]12CC[C@H]3[C@@H]([C@@H](O)C=C4C[C@@H](O)CC[C@@]43C)[C@@H]1CC[C@@H]2O [AET, 3β,7β,17β-trihydroxyandrost-5-ene] | 6 animals | 3 animals | Adhesion was absent | no diarrhea |  |  |  |  |  |  |  | mice producing anti-HBsAg in response to secondary vaccination ([1]; groups of 8, 0.3 mg/mouse at primary vaccination): 6 mice; mice with increased anti-HBsAg antibody titer following secondary vaccination ([1]; groups of 8, 3 mg/mouse at primary vaccination): 8 mice; animals with ulcers ([2]; 14 days after challenge, treatment began the same day as challenge): 1 animal
2 | CCN(CC)CCCC(C)Nc1ccnc2cc(Cl)ccc12 (centres unmarked) [Chloroquine, reference compound] |  |  |  |  |  |  |  |  |  |  |  | Parasitaemia Score (0-5) ([3]; 3 mg/kg × 4 days i.p.): 1; IC50 ([4]; Plasmodium falciparum, T996): 0.009 µM; inhibition at 0.00625 µM ([4]; Plasmodium falciparum, T996): 27.2%; inhibition at 0.0125 µM ([4]; Plasmodium falciparum, T996): 86.8%; inhibition at 0.025 µM ([4]; Plasmodium falciparum, T996): 94.5%; inhibition at 0.05 µM ([4]; Plasmodium falciparum, T996): 97.3%; inhibition at 0.1 µM ([4]; Plasmodium falciparum, T996): 94.6%; inhibition at 0.2 µM ([4]; Plasmodium falciparum, T996): 95.9%; % RBC parasitemia ([5]; Day 4, saline control 16%): 10%; % RBC parasitemia ([5]; Day 11, saline control 36%): 16%
3 | O=C(O)c1cc(/N=N/c2ccc(S(=O)(=O)Nc3ccccn3)cc2)ccc1O [Sulfasalazine] | 6 animals | 2 animals | no animals exhibited adhesions or colonic ulceration | all animals treated with Sulfazalazine had diarrhea |  |  |  |  |  |  |  | animals with severe acute inflammation ([2]; 7 days after DNBS challenge, 3 of 10 in immunosteroid vehicle controls): 3 animals; colonic ulceration [2, 6]: no animals exhibited adhesions or colonic ulceration
4 | Etianic Acid Methyl Ester |  |  |  |  | 47.1% | 43.4% | 41.4% | 45.3% | 47.4% | 61.5% | 17.5 µM | 
5 | Etienic Acid |  |  |  |  |  |  |  |  |  |  |  | Parasitaemia Score (0-5) ([3]; 100 mg/kg × 4 days i.p.): 2
6 | Etienic Acid Methyl Ester |  |  |  |  | 43.3% | 41% | 46% | 40.9% | 45.7% | 60% | 19.5 µM | 
